Assay results as given in patent US11560352B2, “P62-ZZ small molecule modulators” (University of Pittsburgh—Of the Commonwealth System of …, priority 2015, dated 2023).
Where a name gives a salt, the structure may show the parent alone.

Legend:
RPMI8266 = assay: inhibition of multiple myeloma cell growth, RPMI8266 cells; assay type: cell-based; conditions: Homo sapiens
Text: (§1) FIG. 2 is a schematic showing in vitro biological assays to validate screened compounds for multiple myeloma cells growth via inhibition of p62-zz domain and PKCζ phosphorylation.

MM1S = assay: inhibition of multiple myeloma cell growth, MM1S cells; assay type: cell-based; conditions: Homo sapiens, MM1.S
Text: as §1

U266 = assay: inhibition of multiple myeloma cell growth, U266 cells; assay type: cell-based; conditions: Homo sapiens, U-266
Text: as §1

[1] = system: RPMI-8226 human multiple myeloma xenograft; assay: subcutaneous RPMI-8226 human multiple myeloma xenograft model: efficacy and tolerability; assay type: in vivo
Procedure: The therapeutic efficacy and tolerability of compound XIELP1-106 (also referred to as 10b) was evaluated in the treatment of subcutaneous RPMI-8226 human multiple myeloma xenograft model. The tumor volumes in the two groups at different time points are shown FIG. 3. The mean tumor volume of the XIELP1-106 vehicle control group reached 1,452 mm3 on day 39 after tumor implantation. The treatment of XIELP1-106 (60 mg/kg, ip, q3d×4 wks) produced a strong antitumor activity with T/C value of 23% (p=0.001).
The median survival time (MST) of the vehicle treated mice was 42 days (FIG. 4).

Compound	IC50 (RPMI8266)	IC50 (MM1S)	IC50 (U266)	T/C value (antitumor activity) ([1]; 60 mg/kg, ip, q3d×4 wks, tumor volume vs vehicle control, day 39 after tumor implantation, p=0.001)	body weight loss ([1]; mice, 60 mg/kg ip q3d, after 3 doses, tolerability developed afterwards)	other gross clinical abnormality ([1]; mice, 60 mg/kg ip q3d×4 wks)
Fc1ccc(COc2ccc(CNC3CCCCC3)cc2OCc2ccc(F)cc2)cc1 [XIELP1-12b, N-(3,4-bis((4-fluorobenzyl)oxy)benzyl)cyclohexanamine]	1.18 µM	1.77 µM	–	–	–	–
Fc1ccc(COc2ccc(CNCC3CCCCC3)cc2OCc2ccc(F)cc2F)c(F)c1 [XIELP1-17b, N-(3,4-bis((2,4-difluorobenzyl)oxy)benzyl)-1-cyclohexylmethanamine]	0.94 µM	0.84 µM	–	–	–	–
Fc1ccc(COc2ccc(CNC3CCCCC3)cc2OCc2ccc(F)cc2F)c(F)c1 [XIELP1-20a, N-(3,4-bis((2,4-difluorobenzyl)oxy)benzyl)cyclohexanamine]	1.13 µM	2.53 µM	–	–	–	–
Cc1ccc(COc2ccc(CNCCO)cc2OCc2ccc(C)cc2)cc1 [XIELP1-24b, 2-((3,4-bis((4-methylbenzyl)oxy)benzyl)amino)ethan-1-ol]	0.63 µM	2.56 µM	1.21 µM	–	–	–
Cc1ccc(COc2ccc(CNCC3CCCCC3)cc2OCc2ccc(C)cc2)cc1 [XIELP1-25b]	0.92 µM	1.51 µM	1.26 µM	–	–	–
Cc1ccc(COc2ccc(CNC3CCCCC3)cc2OCc2ccc(C)cc2)cc1 [XIELP1-51, N-(3,4-bis((4-methylbenzyl)oxy)benzyl)cyclohexanamine]	1.83 µM	5.36 µM	–	–	–	–
Fc1ccc(COc2cc(CNCC3CCCCC3)cc(OCc3ccc(F)cc3F)c2)c(F)c1 [XIELP1-58, N-(3,5-bis((2,4-difluorobenzyl)oxy)benzyl)-1-cyclohexylmethanamine]	1.4 µM	2.5 µM	–	–	–	–
Fc1ccc(COc2cc(CNC3CCCCC3)cc(OCc3ccc(F)cc3F)c2)c(F)c1 [XIELP1-60, N-(3,5-bis((2,4-difluorobenzyl)oxy)benzyl)cyclohexanamine]	1.33 µM	2.51 µM	–	–	–	–
Fc1ccc(COc2ccc(CNCC3CCCCC3)cc2OCc2ccc(F)cc2)cc1 [XIELP1-106, N-(3,4-bis((4-fluorobenzyl)oxy)benzyl)-1-cyclohexylmethanamine Hydrochloride]	0.72 µM	2.46 µM	–	23%	11.2%	No other gross clinical abnormality was observed
